# According to patent publication US9981909B2 (Janssen Pharmaceutica NV, priority 2008, dated 2018):
# Where a name gives a salt, the structure may show the parent alone.
# What was measured:
# [1] = molecular target: human SERT (Homo sapiens (Human), UniProt P31645); assay: human SERT binding assay with [3H]-citalopram on HEK-293 membranes; settings: read-out: hSERT binding Ki
# Protocol: (§1) Receptor binding was performed using membrane fractions prepared from the HEK-293 cell line recombinantly expressing rat 5-HT7 receptors (NCBI accession NM_022938). Compound affinity for the rat 5-HT7 receptor subtype was evaluated by competitive radioligand binding assays using 5-carboxamido[^3H]tryptamine ([^3H]5-CT) (Amersham Biosciences, cat. 90000403) detection. HitHunter™ cAMP assays are in-vitro based competitive immunoassays. The assay was performed on the HEK-293 cell line stably transfected with r5-HT7 receptor. Cells were pre-incubated with test compounds for 10 minutes. For antagonist testing, the cells were then challenged with 100 nM 5-CT for 20 minutes. Cells were then lysed and cAMP measured according to manufacturers protocol (Amersham, cat. NET791250UC) or [^3H]mesulergine (Amersham, cat. TRK1041). The assay was performed on membranes prepared from HEK-293 cells stably transfected with h5-HT6. Following centrifugation, membranes were resuspended and incubated for 60 min at room temperature with 1.7 nM [^3H]LSD in the presence of increasing concentration of test compounds. Nonspecific binding was defined in the presence of 10 μM clozapine (Tocris, cat. TRK1068). Homogenized HEK-293 membranes expressing the human SERT were incubated in 50 mM Tris-HCl (pH 7.5), 120 mM NaCl, 5 mM KCl with [^3H]-citalopram (3 nM) with or without test compounds. Nonspecific binding was determined in the presence of 10 μM fluoxetine. Radioactivity readouts and Ki values were performed as previously described for r5-HT7. […] Compounds were assayed in their free form or as salts, as indicated in the Examples section above.
# [2] = molecular target: rat 5-HT7 receptor (Rattus norvegicus (Rat), UniProt P32305); assay: r5-HT7 binding assay, competitive radioligand binding with [3H]5-CT
# Protocol: as §1
# [3] = rat 5-HT7 receptor, HEK-293 membranes
# Chain of human SERT (P31645 whole entry): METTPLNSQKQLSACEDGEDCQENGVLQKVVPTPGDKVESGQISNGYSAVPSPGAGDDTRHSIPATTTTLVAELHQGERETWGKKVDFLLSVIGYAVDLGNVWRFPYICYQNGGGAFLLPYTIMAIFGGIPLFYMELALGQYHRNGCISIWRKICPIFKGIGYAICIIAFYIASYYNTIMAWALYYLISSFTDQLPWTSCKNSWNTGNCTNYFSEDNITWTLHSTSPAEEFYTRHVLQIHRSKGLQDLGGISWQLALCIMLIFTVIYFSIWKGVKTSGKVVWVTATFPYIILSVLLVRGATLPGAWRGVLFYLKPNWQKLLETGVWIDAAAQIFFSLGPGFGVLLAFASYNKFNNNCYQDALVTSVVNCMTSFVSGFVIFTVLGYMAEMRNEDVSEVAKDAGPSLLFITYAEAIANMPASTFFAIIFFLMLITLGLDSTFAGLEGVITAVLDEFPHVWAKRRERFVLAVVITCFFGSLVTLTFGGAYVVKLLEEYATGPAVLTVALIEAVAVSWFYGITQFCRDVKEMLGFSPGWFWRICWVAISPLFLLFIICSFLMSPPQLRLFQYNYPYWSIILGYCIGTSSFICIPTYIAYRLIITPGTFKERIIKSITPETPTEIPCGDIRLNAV
# Chain of rat 5-HT7 receptor (P32305 1-435): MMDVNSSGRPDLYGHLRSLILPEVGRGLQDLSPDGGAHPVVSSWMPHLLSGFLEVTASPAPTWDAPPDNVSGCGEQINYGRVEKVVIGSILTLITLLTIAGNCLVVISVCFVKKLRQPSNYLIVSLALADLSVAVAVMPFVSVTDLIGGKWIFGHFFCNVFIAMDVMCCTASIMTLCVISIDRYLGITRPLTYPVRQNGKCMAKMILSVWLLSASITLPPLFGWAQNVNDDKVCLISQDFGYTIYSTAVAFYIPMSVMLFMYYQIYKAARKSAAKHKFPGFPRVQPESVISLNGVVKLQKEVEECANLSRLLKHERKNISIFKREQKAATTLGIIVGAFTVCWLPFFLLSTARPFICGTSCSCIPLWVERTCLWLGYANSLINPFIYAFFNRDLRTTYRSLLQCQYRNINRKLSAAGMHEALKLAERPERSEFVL
SMILES,Ki [1] [nM],"Ki [2, 3] [nM]","Ki ([2]; rat 5-HT7, HEK-293 membranes) [nM]"
"CC(Oc1ccc(Cl)cc1OC1CNC1)c1ccccc1F (racemic) [Example 121, (±)-3-[5-Chloro-2-[1-(2-fluoro-phenyl)-ethoxy]-phenoxy]-azetidine]",164,33,–
"CC(Oc1ccc(Cl)cc1OC1CN(Cc2ccccc2)C1)c1cccc(C(F)(F)F)c1 (racemic) [Example 108, (±)-1-Benzyl-3-[5-chloro-2-[1-(3-trifluoromethyl-phenyl)-ethoxy]-phenoxy]-azetidine]",5000,36,–
"Clc1ccc(OCc2ccccn2)c(OC2CNC2)c1 [Example 51, 2-[2-(Azetidin-3-yloxy)-4-chloro-phenoxymethyl]-pyridine]",86,387,–
"FC(F)(F)c1ccc(COc2ccc(Cl)cc2OC2CNC2)cc1 [Example 43, 3-[5-Chloro-2-(4-trifluoromethyl-benzyloxy)-phenoxy]-azetidine]",86,15,–
"Clc1ccc2c(c1)CC(Oc1ccc(Cl)cc1OC1CNC1)C2 (stereo not drawn) [Example 176, 3-[5-Chloro-2-(5-chloro-indan-2-yloxy)-phenoxy]-azetidine]",75,24,–
"FC(F)(F)c1ccc(COc2ccc(Cl)cc2OC2CNC2)c(C(F)(F)F)c1 [Example 45, 3-[2-(2,4-Bis-trifluoromethyl-benzyloxy)-5-chloro-phenoxy]-azetidine]",197,3160,–
"CC1(Oc2cc(Br)ccc2Oc2ccccc2)CNC1 [Example 218, 3-(5-Bromo-2-phenoxy-phenoxy)-3-methyl-azetidine]",–,–,69
"Cc1ccccc1Oc1ccc(Cl)cc1OC1CNC1 [Example 259, 3-(5-Chloro-2-o-tolyloxy-phenoxy)-azetidine trifluoroacetate]",–,–,460
"FC(F)(F)c1ccc(COc2ccc(Cl)cc2OC2CNC2)cn1 [Example 82, 5-[2-(Azetidin-3-yloxy)-4-chloro-phenoxymethyl]-2-trifluoromethyl-pyridine]",–,198,–
"CCC(Oc1ccc(Cl)cc1OC1CCNCC1)c1cccc(C(F)(F)F)c1 (racemic) [Example 141, (±)-4-[5-Chloro-2-[1-(3-trifluoromethyl-phenyl)-propoxy]-phenoxy]-piperidine]",–,450,–
"CC(C)N1CC(Oc2ccc(Cl)cc2OC2CN(C(C)C)C2)C1 [Example 227, 3-[5-Chloro-2-(1-Isopropyl-azetidin-3-ol)-phenoxy]-1-isopropyl-azetidine]",–,–,336
"O=C(c1ccc(Cl)c(Cl)c1)c1ccc(Br)cc1OC1CNC1 [Example 293, [2-(Azetidin-3-yloxy)-4-bromo-phenyl]-(3,4-dichloro-phenyl)-methanone]",–,–,51
"OCC(Oc1ccc(Cl)cc1OC1CNC1)c1ccccc1 (stereo not drawn) [Example 148, 2-[2-(Azetidin-3-yloxy)-4-chloro-phenoxy]-2-phenyl-ethanol]",–,2000,–
"O=C(c1cccc(Cl)c1)c1ccc(Cl)cc1OC1CNC1 [Example 298, [2-(Azetidin-3-yloxy)-4-chloro-phenyl]-(3-chloro-phenyl)-methanone]",–,–,102
"COc1cccc(COc2ccc(Br)cc2OC2CCN(C)C2)c1 (racemic) [Example 96, (±)-3-[5-Bromo-2-(3-methoxy-benzyloxy)-phenoxy]-1-methyl-pyrrolidine]",–,13,–
"CCOC(=O)c1ccc(COc2ccc(Cl)cc2OC2CNC2)o1 [Example 55, 5-[2-(Azetidin-3-yloxy)-4-chloro-phenoxymethyl]-furan-2-carboxylic acid ethyl ester]",–,171,–
"Fc1cc(Cl)cc(OC2CNC2)c1OCc1ccccc1 [Example 197, 3-(2-Benzyloxy-5-chloro-3-fluoro-phenoxy)-azetidine]",–,1420,–
"Fc1ccc(OCc2cccc(Cl)c2)c(OC2CN(C3CCC3)C2)c1 [Example 205, 3-[2-(3-Chloro-benzyloxy)-5-fluoro-phenoxy]-1-cyclobutyl-azetidine]",–,27,–
"Clc1ccc(OC2CCCC2)c(OC2CNC2)c1 [Example 72, 3-(5-Chloro-2-cyclopentyloxy-phenoxy)-azetidine trifluoroacetate]",–,270,–
"Clc1ccc(OC2CN(C(c3ccccc3)c3ccccc3)C2)c(OC2CNC2)c1 [Example 225, 3-[5-Chloro-2-(1-benzhydryl-azetidin-3-ol)-phenoxy]-azetidine]",–,–,2670
"O=C(c1ccc2ccccc2c1)c1ccc(Cl)cc1OC1CNC1 [Example 294, [2-(Azetidin-3-yloxy)-4-chloro-phenyl]-naphthalen-2-yl-methanone]",–,–,72

SMILES,Ki [1] [nM],"Ki [2, 3] [nM]","Ki ([2]; rat 5-HT7, HEK-293 membranes) [nM]"
"CC(Oc1ccc(Cl)cc1OC1CNC1)c1cc(Cl)ccc1Cl (racemic) [Example 129, (±)-3-[5-Chloro-2-[1-(2,5-dichloro-phenyl)-ethoxy]-phenoxy]-azetidine trifluoroacetate]",–,903,–
"CC(Oc1ccc(Cl)cc1OC1CNC1)c1ccc(C(F)(F)F)c(F)c1 (racemic) [Example 118, (±)-3-[5-Chloro-2-[1-(3-fluoro-4-trifluoromethyl-phenyl)-ethoxy]-phenoxy]-azetidine]",–,90,–
"Brc1ccc(OCC2CCCCC2)c(OC2CNC2)c1 [Example 74, 3-(5-Bromo-2-cyclohexylmethoxy-phenoxy)-azetidine]",–,11,–
"CC(Oc1ccc(Cl)cc1OC1CNC1)c1cccc(OC(F)(F)F)c1 (racemic) [Example 127, (±)-3-[5-Chloro-2-[1-(3-trifluoromethoxy-phenyl)-ethoxy]-phenoxy]azetidine]",–,63,–
"Clc1ccc(OCC2Cc3ccccc3O2)c(OC2CNC2)c1 (stereo not drawn) [Example 169, 3-[5-Chloro-2-(2,3-dihydro-benzofuran-2-ylmethoxy)-phenoxy]-azetidine]",–,119,–
"CC(Oc1ccc(Cl)cc1OC1CNC1)c1cc(F)cc(C(F)(F)F)c1 (racemic) [Example 119, (±)-3-[5-Chloro-2-[1-(3-fluoro-5-trifluoromethyl-phenyl)-ethoxy]-phenoxy]-azetidine]",–,288,–
"Clc1ccc(OCc2nc(C3CCC3)no2)c(OC2CNC2)c1 [Example 240, 5-[2-(Azetidin-3-yloxy)-4-chloro-phenoxymethyl]-3-cyclobutyl-[1,2,4]oxadiazole]",–,–,252
"CC(Oc1ccc(Cl)cc1OC1CNC1)c1cncs1 (stereo not drawn) [Example 132, 5-[1-[2-(Azetidin-3-yloxy)-4-chloro-phenoxy]-ethyl]-thiazole]",–,456,–
"CN1CCC(Oc2ccccc2OCc2cccc(OS(C)(=O)=O)c2)C1 (racemic) [Example 100, (±)-Methanesulfonic acid 3-[2-(1-methyl-pyrrolidin-3-yloxy)-phenoxymethyl]-phenyl ester]",–,150,–
"CC(Oc1ccc(Cl)cc1OC1CNC1)c1cccc(C#N)c1 (racemic) [Example 125, (±)-3-[1-[2-(Azetidin-3-yloxy)-4-chloro-phenoxy]-ethyl]-benzonitrile]",–,104,–
"CC(Oc1ccc(Cl)cc1OC1CCNCC1)c1cccc(OC(F)(F)F)c1 (racemic) [Example 137, (±)-4-[5-Chloro-2-[1-(3-trifluoromethoxy-phenyl)-ethoxy]-phenoxy]-piperidine]",–,472,–
"Fc1ccc(OCc2cccc(Cl)c2)c(OC2CNC2)c1 [Example 202, 3-[2-(3-Chloro-benzyloxy)-5-fluoro-phenoxy]-azetidine hydrochloride]",–,66,–
"Cc1cc(COc2ccc(Cl)cc2OC2CNC2)c(C(F)(F)F)o1 [Example 78, 3-[5-Chloro-2-(5-methyl-2-trifluoromethyl-furan-3-ylmethoxy)-phenoxy]-azetidine]",–,710,–
"Brc1ccc(Oc2ccc3ccccc3c2)c(OC2CNC2)c1 [Example 254, 3-[5-Bromo-2-(naphthalen-2-yloxy)-phenoxy]-azetidine]",–,–,19
"Clc1cccc(COc2ccc(Cl)cc2COC2CNC2)c1 [Example 238, 3-[5-Chloro-2-(3-chloro-benzyloxy)-benzyloxy]-azetidine]",–,–,200
"CC(C)c1noc(COc2ccc(Cl)cc2OC2CNC2)n1 [Example 242, 5-[2-(Azetidin-3-yloxy)-4-chloro-phenoxymethyl]-3-isopropyl-[1,2,4]oxadiazole hydrochloride]",–,–,273
"Clc1ccc(OCc2nc(C3CC3)no2)c(OC2CNC2)c1 [Example 241, 5-[2-(Azetidin-3-yloxy)-4-chloro-phenoxymethyl]-3-cyclopropyl-[1,2,4]oxadiazole hydrochloride]",–,–,263
"Clc1ccc(OCC2CCOC2)c(OC2CNC2)c1 (stereo not drawn) [Example 163, 3-[5-Chloro-2-(tetrahydro-furan-3-ylmethoxy)-phenoxy]-azetidine]",–,766,–
"Clc1ccc(Oc2ccccc2)c(OC2CNC2)c1 [Example 256, 3-(5-Chloro-2-phenoxy-phenoxy)-azetidine]",–,–,160
"COc1cccc(C(=O)c2ccc(Br)cc2OC2CNC2)c1 [Example 286, [2-(Azetidin-3-yloxy)-4-bromo-phenyl]-(3-methoxy-phenyl)-methanone]",–,–,39
"O=C(O)c1cc(COc2ccc(Cl)cc2OC2CNC2)oc1C(F)(F)F [Example 75, 5-[2-(Azetidin-3-yloxy)-4-chloro-phenoxymethyl]-2-trifluoromethyl-furan-3-carboxylic acid trifluoroacetate]",–,9000,–
